Test results taken from patent US11987564B2, “PTPRD inhibitors and uses thereof” (United States Government as represented by the Department …, priority 2021, dated 2024).

What was measured:
[1] = molecular target: PTPRS (Homo sapiens, UniProt Q13332); test: pNPP hydrolysis by recombinant PTPRS phosphatase; type: biochemical
Description: (§1) Human […] ([…]-pY-[…]) phosphopeptide (Pierce/ThermoFisher) were synthesized.

[2] = molecular target: T1, PTPRJ (Homo sapiens, UniProt Q12913); test: pNPP hydrolysis by PTPRJ phosphatase; type: biochemical
T1 construct: purchased
T1 sequence (Q12913 36-1337): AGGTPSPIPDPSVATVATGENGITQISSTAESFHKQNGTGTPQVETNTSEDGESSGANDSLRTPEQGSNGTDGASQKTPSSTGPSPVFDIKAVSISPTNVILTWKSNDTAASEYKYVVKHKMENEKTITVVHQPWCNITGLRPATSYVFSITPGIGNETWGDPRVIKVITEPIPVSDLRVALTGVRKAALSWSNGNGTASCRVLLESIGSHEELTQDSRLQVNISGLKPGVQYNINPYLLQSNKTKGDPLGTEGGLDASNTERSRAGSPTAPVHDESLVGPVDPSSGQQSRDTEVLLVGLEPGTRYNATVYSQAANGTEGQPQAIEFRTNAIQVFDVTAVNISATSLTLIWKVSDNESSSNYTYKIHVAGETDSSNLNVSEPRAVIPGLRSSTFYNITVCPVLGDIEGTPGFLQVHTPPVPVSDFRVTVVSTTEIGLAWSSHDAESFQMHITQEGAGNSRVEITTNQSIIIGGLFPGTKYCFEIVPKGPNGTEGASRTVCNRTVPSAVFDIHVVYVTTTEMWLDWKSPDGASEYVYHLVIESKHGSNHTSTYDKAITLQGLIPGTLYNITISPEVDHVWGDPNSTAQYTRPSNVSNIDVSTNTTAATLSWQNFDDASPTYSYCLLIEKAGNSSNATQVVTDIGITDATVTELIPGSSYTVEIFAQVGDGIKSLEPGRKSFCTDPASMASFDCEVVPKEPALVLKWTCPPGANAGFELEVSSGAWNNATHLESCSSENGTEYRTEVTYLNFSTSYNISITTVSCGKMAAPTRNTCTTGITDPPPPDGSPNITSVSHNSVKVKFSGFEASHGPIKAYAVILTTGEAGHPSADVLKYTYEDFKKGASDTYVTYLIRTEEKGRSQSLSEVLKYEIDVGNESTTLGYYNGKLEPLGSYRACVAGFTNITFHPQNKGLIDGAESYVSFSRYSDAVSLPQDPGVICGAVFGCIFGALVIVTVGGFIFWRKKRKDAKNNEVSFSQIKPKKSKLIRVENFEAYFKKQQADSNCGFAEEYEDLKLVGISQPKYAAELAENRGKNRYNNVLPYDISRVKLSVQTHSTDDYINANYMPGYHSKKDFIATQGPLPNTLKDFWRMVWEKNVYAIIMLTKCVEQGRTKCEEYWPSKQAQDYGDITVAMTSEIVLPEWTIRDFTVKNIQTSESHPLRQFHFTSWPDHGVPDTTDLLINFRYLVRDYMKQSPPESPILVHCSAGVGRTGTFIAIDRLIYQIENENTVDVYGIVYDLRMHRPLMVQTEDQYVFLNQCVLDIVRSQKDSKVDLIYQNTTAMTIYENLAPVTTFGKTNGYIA
Description: as §1

[3] = molecular target: PTPRF (Homo sapiens, UniProt P10586); test: pNPP hydrolysis by recombinant PTPRF phosphatase
Description: (§2) Phosphatase assays: Data for each assay type (3 wells/experimental condition, read using a Spectromax plate reader) was plotted vs time, and results derived from the slopes of linear regions were reported from triplicate independent experiments.
(§3) For assays of compound ligands that were likely pseudo-irreversible, 18 min preincubations were also added. For work determining the effect of flavonoids on pNPP hydrolysis, a 96 well half-area plate was prepared by first filling each well to be tested with 18 μL of 50 μM pNPP and 25 uL of running buffer, and 2 μL of DMSO containing the desired concentration of flavonoid and/or peptide. PTPRD phosphatase was diluted 1:50 in a dilution buffer.

[4] = molecular target: recombinant PTPRD (Homo sapiens, UniProt P23468); test: pNPP hydrolysis by recombinant PTPRD phosphatase
recombinant PTPRD, sequence (P23468 21-1912): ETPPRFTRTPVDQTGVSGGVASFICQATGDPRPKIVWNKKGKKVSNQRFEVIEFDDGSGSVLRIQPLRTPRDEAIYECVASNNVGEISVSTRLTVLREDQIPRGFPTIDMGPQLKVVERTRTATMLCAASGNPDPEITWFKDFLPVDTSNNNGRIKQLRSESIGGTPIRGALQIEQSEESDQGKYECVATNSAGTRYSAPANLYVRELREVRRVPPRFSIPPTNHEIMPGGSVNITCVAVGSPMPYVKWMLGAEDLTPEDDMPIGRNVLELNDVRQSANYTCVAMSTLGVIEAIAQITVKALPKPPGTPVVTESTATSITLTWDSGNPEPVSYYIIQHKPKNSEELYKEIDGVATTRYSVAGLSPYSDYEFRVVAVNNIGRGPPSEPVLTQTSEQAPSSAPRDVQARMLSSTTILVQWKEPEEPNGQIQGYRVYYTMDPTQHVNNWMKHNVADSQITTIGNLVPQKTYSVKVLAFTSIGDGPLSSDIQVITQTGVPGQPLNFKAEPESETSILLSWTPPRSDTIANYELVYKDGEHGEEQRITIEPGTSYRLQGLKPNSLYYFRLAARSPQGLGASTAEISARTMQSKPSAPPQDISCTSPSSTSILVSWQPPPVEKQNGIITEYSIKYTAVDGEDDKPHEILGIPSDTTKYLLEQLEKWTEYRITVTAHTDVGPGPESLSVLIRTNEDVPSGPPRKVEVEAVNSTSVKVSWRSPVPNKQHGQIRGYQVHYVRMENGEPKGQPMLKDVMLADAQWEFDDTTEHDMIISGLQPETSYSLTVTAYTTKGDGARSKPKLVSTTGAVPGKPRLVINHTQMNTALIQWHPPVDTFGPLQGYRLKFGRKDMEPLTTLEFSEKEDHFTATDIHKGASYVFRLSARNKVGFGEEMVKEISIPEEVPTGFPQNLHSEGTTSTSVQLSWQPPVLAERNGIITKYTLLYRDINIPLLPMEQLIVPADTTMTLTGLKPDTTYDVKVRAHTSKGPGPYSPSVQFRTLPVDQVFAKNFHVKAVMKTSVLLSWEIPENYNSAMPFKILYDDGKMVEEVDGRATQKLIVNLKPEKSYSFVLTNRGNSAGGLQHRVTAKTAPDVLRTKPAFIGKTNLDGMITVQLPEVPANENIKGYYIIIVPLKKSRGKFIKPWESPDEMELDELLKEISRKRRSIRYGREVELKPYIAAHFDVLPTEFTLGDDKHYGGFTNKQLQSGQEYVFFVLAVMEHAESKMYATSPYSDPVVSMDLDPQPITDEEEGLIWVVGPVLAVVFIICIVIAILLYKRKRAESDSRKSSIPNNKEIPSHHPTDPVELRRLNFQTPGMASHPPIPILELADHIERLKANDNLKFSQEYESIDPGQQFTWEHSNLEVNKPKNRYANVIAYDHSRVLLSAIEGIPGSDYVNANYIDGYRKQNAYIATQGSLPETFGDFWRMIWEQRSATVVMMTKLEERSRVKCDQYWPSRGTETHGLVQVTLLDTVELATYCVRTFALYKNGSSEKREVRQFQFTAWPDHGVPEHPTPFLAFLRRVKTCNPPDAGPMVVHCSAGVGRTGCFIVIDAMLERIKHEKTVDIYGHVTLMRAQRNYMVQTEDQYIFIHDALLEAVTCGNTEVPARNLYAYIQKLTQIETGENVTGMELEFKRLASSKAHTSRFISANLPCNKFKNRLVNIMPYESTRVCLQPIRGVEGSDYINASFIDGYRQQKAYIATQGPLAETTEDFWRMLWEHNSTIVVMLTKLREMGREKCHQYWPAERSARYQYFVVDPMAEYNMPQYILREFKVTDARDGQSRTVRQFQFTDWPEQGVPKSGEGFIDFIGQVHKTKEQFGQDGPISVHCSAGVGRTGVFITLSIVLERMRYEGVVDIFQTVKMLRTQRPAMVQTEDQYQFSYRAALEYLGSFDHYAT
Description: as §2, §3

[5] = molecular target: T2, PTPN1 (PTP1B) (Homo sapiens, UniProt P18031); test: pNPP hydrolysis by PTPN1 (PTP1B) phosphatase; type: biochemical; conditions: untitled table after Table 4; mean, SEM in wrapped line
T2 construct: purchased
T2 sequence (P18031 1-435): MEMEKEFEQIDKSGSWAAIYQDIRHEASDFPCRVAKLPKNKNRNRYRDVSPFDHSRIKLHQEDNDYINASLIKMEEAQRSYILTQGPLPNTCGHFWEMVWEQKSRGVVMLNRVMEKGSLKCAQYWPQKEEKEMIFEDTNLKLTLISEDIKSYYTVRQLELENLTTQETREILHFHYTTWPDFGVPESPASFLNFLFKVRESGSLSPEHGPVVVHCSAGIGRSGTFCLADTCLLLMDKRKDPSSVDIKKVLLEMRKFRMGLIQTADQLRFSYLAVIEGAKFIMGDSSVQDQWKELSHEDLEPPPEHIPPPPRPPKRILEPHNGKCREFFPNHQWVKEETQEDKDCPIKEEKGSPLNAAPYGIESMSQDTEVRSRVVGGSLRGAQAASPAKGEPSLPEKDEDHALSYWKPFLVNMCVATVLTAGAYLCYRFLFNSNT

[6] = Table 4, mean (SEM) of three independent experiments, * = instability, no valid triplicate
[7] = untitled table after Table 4, mean, SEM in wrapped line
[8] = PTPRF IC50, Table 4, mean (SEM) of three independent experiments, * = instability, no valid triplicate
[9] = PTPRF IC50, untitled table after Table 4, mean, SEM in wrapped line
[10] = PTPRD IC50, Table 4, mean (SEM) of three independent experiments, * = instability, no valid triplicate
[11] = PTPRD IC50, untitled table after Table 4, mean, SEM in wrapped line, compounds with PTPRD IC50 <5 μM

PTPRS, sequence (Q13332 30-1948, species assumed): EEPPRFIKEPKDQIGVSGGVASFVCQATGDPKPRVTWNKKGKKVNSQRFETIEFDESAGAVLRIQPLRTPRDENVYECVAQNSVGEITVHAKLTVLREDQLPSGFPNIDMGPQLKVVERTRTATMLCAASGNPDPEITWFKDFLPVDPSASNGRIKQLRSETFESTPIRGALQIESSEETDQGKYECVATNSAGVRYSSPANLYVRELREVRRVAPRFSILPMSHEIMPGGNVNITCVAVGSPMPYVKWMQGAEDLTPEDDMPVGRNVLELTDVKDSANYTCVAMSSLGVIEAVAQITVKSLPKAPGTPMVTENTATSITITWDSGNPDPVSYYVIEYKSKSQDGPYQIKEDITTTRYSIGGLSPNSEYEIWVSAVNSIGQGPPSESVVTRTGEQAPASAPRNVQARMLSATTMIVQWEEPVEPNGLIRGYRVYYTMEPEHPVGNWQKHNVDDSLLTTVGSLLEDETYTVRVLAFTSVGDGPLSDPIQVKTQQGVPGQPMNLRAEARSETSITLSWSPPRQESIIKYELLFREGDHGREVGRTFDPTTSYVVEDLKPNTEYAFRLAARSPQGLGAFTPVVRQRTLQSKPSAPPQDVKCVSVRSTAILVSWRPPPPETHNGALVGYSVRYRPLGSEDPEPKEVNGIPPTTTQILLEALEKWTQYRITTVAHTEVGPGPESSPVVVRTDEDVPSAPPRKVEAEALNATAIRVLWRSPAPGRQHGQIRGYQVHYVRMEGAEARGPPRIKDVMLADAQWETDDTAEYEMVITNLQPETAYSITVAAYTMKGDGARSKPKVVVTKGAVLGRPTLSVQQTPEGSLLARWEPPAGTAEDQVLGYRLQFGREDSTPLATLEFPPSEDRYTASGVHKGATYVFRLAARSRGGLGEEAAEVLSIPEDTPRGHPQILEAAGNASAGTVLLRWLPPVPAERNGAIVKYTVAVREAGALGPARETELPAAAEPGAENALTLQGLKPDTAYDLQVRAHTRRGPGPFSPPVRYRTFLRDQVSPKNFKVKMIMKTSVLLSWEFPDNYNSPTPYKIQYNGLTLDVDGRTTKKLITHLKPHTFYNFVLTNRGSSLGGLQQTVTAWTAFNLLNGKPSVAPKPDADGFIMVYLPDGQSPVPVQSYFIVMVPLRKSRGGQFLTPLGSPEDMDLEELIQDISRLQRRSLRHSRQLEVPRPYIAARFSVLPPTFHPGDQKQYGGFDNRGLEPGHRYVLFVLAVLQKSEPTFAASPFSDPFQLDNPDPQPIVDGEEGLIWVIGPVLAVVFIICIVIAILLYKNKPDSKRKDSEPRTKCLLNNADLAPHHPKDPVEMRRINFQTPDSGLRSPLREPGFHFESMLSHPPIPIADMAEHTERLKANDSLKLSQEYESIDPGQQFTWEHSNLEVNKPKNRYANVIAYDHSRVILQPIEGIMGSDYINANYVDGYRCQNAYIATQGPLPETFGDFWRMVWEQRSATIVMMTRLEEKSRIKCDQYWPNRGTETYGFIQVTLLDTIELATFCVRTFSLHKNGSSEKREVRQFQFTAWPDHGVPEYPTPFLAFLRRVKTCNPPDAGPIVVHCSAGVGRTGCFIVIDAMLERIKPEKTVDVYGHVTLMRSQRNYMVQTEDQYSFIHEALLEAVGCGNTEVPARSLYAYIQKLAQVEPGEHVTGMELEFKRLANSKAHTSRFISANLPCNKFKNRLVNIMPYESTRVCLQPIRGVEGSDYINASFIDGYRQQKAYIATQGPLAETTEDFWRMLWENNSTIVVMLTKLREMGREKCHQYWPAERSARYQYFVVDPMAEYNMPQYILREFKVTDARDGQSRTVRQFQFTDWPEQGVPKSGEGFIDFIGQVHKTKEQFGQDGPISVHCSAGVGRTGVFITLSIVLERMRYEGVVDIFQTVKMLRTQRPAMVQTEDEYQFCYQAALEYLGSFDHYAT

Structure (SMILES) | IC50 [1, 6] [nM] | IC50 [1, 7] [nM] | IC50 [2, 6] [µM] | IC50 [2, 7] [µM] | IC50 [3, 8] [µM] | IC50 [3, 9] [µM] | IC50 [4, 10] [µM] | IC50 [4, 11] [µM] | IC50 [5] [µM]
COc1c(OCc2ccc(C)s2)cc2c(c1C=O)CC(O)OC2=O (stereo not shown) [Compound 46, 3-Hydroxy-6-methoxy-7-((5-methylthiophen-2-yl)methoxy)-1-oxoisochromane-5-carbaldehyde] | 1400 | 1400 | 19.8 | 19.8 | 3.5 | 3.5 | 0.92 | 0.92 | 
COc1c(OCc2ccc3ccccc3c2)cc2c(c1C=O)CC(O)OC2=O (stereo not shown) [Compound 49, 3-Hydroxy-6-methoxy-7-(naphthalen-2-ylmethoxy)-1-oxoisochromane-5-carbaldehyde] | 4610 | 4610 | 33.3 | 33.3 | 5.87 | 5.87 |  |  | 221
COc1c(OCCc2ccccc2)cc2c(c1C=O)CC(O)OC2=O (stereo not shown) [Compound 50, 3-Hydroxy-6-methoxy-1-oxo-7-phenethoxyisochromane-5-carbaldehyde] | 3030 | 3030 | 54.8 | 54.8 |  |  | 4.57 | 4.57 | 219
COc1c(OCCCc2ccccc2)cc2c(c1C=O)CC(O)OC2=O (stereo not shown) [Compound 52, 3-Hydroxy-6-methoxy-1-oxo-7-(3-phenylpropoxy)isochromane-5-carbaldehyde] | 930 | 930 |  |  | 4.41 | 4.41 |  |  | 
COc1c(OCCCCc2ccc(Cl)cc2)cc2c(c1C=O)CC(O)OC2=O (stereo not shown) [Compound 53, 7-(4-(4-Chlorophenyl)butoxy)-3-hydroxy-6-methoxy-1-oxoisochromane-5-carbaldehyde] | 3090 | 3090 | 28.9 | 28.9 | 5.67 | 5.67 |  |  | 65.7
COc1c(OCCCCc2ccc(O)cc2O)cc2c(c1C=O)CC(O)OC2=O (stereo not shown) [Compound 55] | 2270 | 2270 | 55.5 | 55.5 | 6.8 | 6.8 | 4.45 | 4.45 | 320
COc1c(OCCCC(F)(F)F)cc2c(c1C=O)CC(O)OC2=O (stereo not shown) [Compound 63, 3-Hydroxy-6-methoxy-1-oxo-7-(4,4,4-trifluorobutoxy)isochromane-5-carbaldehyde] |  |  |  | 108 |  |  |  |  | 
COc1c(OCC2CC2)cc2c(c1C=O)CC(O)OC2=O (stereo not shown) [Compound 64, 7-Cyclopropylmethoxy-3-hydroxy-6-methoxy-1-oxo-isochroman-5-carbaldehyde] |  |  |  |  |  |  | 4.18 | 4.18 | 
COc1c(OCC2CCCCC2)cc2c(c1C=O)CC(O)OC2=O (stereo not shown) [Compound 68, 7-Cyclohexylmethoxy-3-hydroxy-6-methoxy-1-oxo-isochroman-5-carbaldehyde] | 1060 | 1060 |  | 0.56 | 0.76 | 0.76 |  |  | 101
COc1c(OCC2CCCCCC2)cc2c(c1C=O)CC(O)OC2=O (stereo not shown) [Compound 69] | 770 | 770 | 9.81 | 9.8 | 1.16 | 1.16 |  |  | 27.1
